Measured values published in patent US11884631B1 (priority 2023, dated 2024).

System: multidrug-resistant (MDR) strains of Mycobacterium tuberculosis
Assay: microbe, parasite or virus in culture
Assay type: cell-based
Conditions: read-out: MIC (μg/mL) MDR Strain

Row | SMILES | MIC [µg/mL]
1 | Cc1ccc2c(ccc[n+]2CC(=O)c2ccc(F)cc2)c1.[Br-] [Compound 3b, 1-(2-(4-Fluorophenyl)-2-oxoethyl)-6-methylquinolin-1-ium bromide] | 16
2 | Cc1ccc2c(ccc[n+]2CC(=O)c2ccccc2[N+](=O)[O-])c1.[Br-] [Compound 3a, 6-Methyl-1-(2-(2-nitrophenyl)-2-oxoethyl)quinolin-1-ium bromide] | 64
3 | Cc1ccc2c(ccc[n+]2CC(=O)c2cc(C(F)(F)F)cc(C(F)(F)F)c2)c1.[Br-] [Compound 3c, 1-(2-(3,5-Bis(trifluoromethyl)phenyl)-2-oxoethyl)-6-methylquinolin-1-ium bromide] | 32
